Data: ChEMBL document CHEMBL1201862, “PubChem BioAssay data set” (2004)
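Values below derive from 48-hour exposures of cells grown in 96-well plates, with endpoints linearly interpolated between the two concentrations bracketing the appropriate inhibition level. Here, GI50 denotes the concentration required for 50% inhibition of growth.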 The source made the active and inactive calls. Cut-off read from the data, not from the text of the source: active = GI50 up to about 1.1 µM and inactive = higher.

Tests used:
Assay in all cases: NCI anticancer screen, dose series, 48 h
EKVX = tested on: EKVX
HT-29 = tested on: HT-29
SF-295 = tested on: SF-295
OVCAR-8 = tested on: OVCAR-8
OVCAR-4 = tested on: OVCAR-4
HCC 2998 = tested on: HCC 2998
SK-MEL-2 = tested on: SK-MEL-2
K562 = tested on: K562
NCI-H23 = tested on: NCI-H23
HOP-62 = tested on: HOP-62
HCT-15 = tested on: HCT-15
HL-60 = tested on: HL-60
SK-OV-3 = tested on: SK-OV-3
RPMI-8226 = tested on: RPMI-8226
SR = tested on: SR
NCI-H460 = tested on: NCI-H460
HOP-92 = tested on: HOP-92

| SMILES | GI50 (EKVX) | GI50 (HT-29) | GI50 (SF-295) | GI50 (OVCAR-8) | GI50 (OVCAR-4) | GI50 (HCC 2998) | GI50 (SK-MEL-2) | GI50 (K562) | GI50 (NCI-H23) | GI50 (HOP-62) | GI50 (HCT-15) [µM] | GI50 (HL-60) | GI50 (SK-OV-3) | GI50 (RPMI-8226) | GI50 (SR) | GI50 (NCI-H460) | GI50 (HOP-92) |
| --- | --- | --- | --- | --- | --- | --- | --- | --- | --- | --- | --- | --- | --- | --- | --- | --- | --- |
| O=C(Nc1c(-c2nc3ccccc3[nH]2)sc(=S)n1-c1ccccc1)c1ccccc1 | > 100 µM (inactive) | > 100 µM (inactive) | 97.5 µM (inactive) | 88.9 µM (inactive) | > 10 µM (inactive) | > 100 µM (inactive) | > 100 µM (inactive) | > 100 µM (inactive) | > 100 µM (inactive) | 56.1 µM (inactive) | > 100 | > 100 µM (inactive) | > 100 µM (inactive) | > 100 µM (inactive) |  |  |  |
| CC1CCc2c(sc3ncnc(N/N=C/c4ccc(Cl)cc4)c23)C1 (stereo unspecified) | 20.1 µM (inactive) | 38.5 µM (inactive) | 29.8 µM (inactive) | 31.4 µM (inactive) |  | 48.1 µM (inactive) | 48.8 µM (inactive) | 18.6 µM (inactive) | 32.8 µM (inactive) | 41.9 µM (inactive) | 32.3 | 19.2 µM (inactive) | 35.6 µM (inactive) | 29.9 µM (inactive) | 21.6 µM (inactive) | 29.4 µM (inactive) |  |
| Nc1nnc2nc(CC(=O)/C=C/c3ccccc3)c(=O)[nH]n12 | > 100 µM (inactive) | > 100 µM (inactive) | > 100 µM (inactive) | > 100 µM (inactive) | > 100 µM (inactive) | > 100 µM (inactive) | > 100 µM (inactive) | > 100 µM (inactive) | > 100 µM (inactive) | > 100 µM (inactive) | > 100 | > 100 µM (inactive) | > 100 µM (inactive) | > 100 µM (inactive) |  | > 100 µM (inactive) | > 100 µM (inactive) |
| CSc1n/c(=N\c2ccccc2)sn1-c1ccccc1 | 27.5 µM (inactive) | 3.52 µM (inactive) | 21.5 µM (inactive) | 21.7 µM (inactive) | 5.3 µM (inactive) | 17.9 µM (inactive) | 17.1 µM (inactive) | 3.24 µM (inactive) | 14.1 µM (inactive) | 15.6 µM (inactive) | 13.8 | 3.74 µM (inactive) | 36.6 µM (inactive) | 5.45 µM (inactive) | 17.8 µM (inactive) | 4.79 µM (inactive) |  |
| CN(C)CCNC(=O)c1cccc2ccc(-c3cccnc3)nc12 | 4.47 µM (inactive) | 4.78 µM (inactive) | 5.69 µM (inactive) | 4.3 µM (inactive) | 8.24 µM (inactive) | 5.31 µM (inactive) | 8.57 µM (inactive) | 4.74 µM (inactive) | 4.39 µM (inactive) | 5.57 µM (inactive) | 4.06 | 3.71 µM (inactive) | 10.1 µM (inactive) |  |  | 2.94 µM (inactive) | 4.39 µM (inactive) |
| O=C(O)CCSC(=S)Nc1cccc(F)c1 | 18.6 µM (inactive) | 80 µM (inactive) | 28.7 µM (inactive) | 37.8 µM (inactive) | 92.3 µM (inactive) | > 100 µM (inactive) |  | 32.3 µM (inactive) | 36.1 µM (inactive) | 56.4 µM (inactive) | 27 |  | > 100 µM (inactive) | 31.6 µM (inactive) | 39.2 µM (inactive) | 83.9 µM (inactive) | 25 µM (inactive) |
| COc1cccc2nc3cc(C)c(C)cc3nc12 | > 100 µM (inactive) | > 100 µM (inactive) | > 100 µM (inactive) | > 100 µM (inactive) | > 100 µM (inactive) | > 100 µM (inactive) | > 100 µM (inactive) | > 100 µM (inactive) | > 100 µM (inactive) | > 100 µM (inactive) | > 100 | > 100 µM (inactive) | 78.3 µM (inactive) |  | > 100 µM (inactive) | > 100 µM (inactive) | > 100 µM (inactive) |
| COc1ccc(C(=O)Nc2ccn(CCOC(=O)c3ccc(OC)cc3)c(=O)n2)cc1 | > 100 µM (inactive) | > 100 µM (inactive) | 58.9 µM (inactive) | > 100 µM (inactive) | > 100 µM (inactive) |  | 47.3 µM (inactive) | > 100 µM (inactive) |  | 51.1 µM (inactive) | > 100 | > 100 µM (inactive) | > 100 µM (inactive) | > 100 µM (inactive) | > 100 µM (inactive) | > 100 µM (inactive) | 63 µM (inactive) |
| Cn1c(=O)c(NC(=O)C(Cl)(Cl)Cl)nc2ccccc21 | 54.5 µM (inactive) | > 100 µM (inactive) | > 100 µM (inactive) | > 100 µM (inactive) |  | > 100 µM (inactive) | > 100 µM (inactive) | > 100 µM (inactive) | > 100 µM (inactive) | > 100 µM (inactive) | > 100 | > 100 µM (inactive) | > 100 µM (inactive) | > 100 µM (inactive) |  | > 100 µM (inactive) |  |
| CC(=O)NC(CCCN)C(=O)NCc1ccccc1 (stereo unspecified) | > 100 µM (inactive) | > 100 µM (inactive) | > 100 µM (inactive) | > 100 µM (inactive) | > 100 µM (inactive) | > 100 µM (inactive) | > 100 µM (inactive) | > 100 µM (inactive) | > 100 µM (inactive) | > 100 µM (inactive) | > 100 |  | > 100 µM (inactive) | > 100 µM (inactive) |  | > 100 µM (inactive) | > 100 µM (inactive) |
| CCNC(=O)/C=C/CCC#Cc1ccc(-c2ccc(-c3cccs3)s2)s1 | > 100 µM (inactive) | > 100 µM (inactive) | > 100 µM (inactive) | > 100 µM (inactive) | > 100 µM (inactive) | > 100 µM (inactive) | > 100 µM (inactive) |  | > 100 µM (inactive) | > 100 µM (inactive) | > 100 | > 100 µM (inactive) | > 100 µM (inactive) | > 100 µM (inactive) | > 100 µM (inactive) | > 100 µM (inactive) | > 100 µM (inactive) |
| C=CCN1C(=O)CS/C1=N\NC(=O)c1c(C)nc2sccn12 | > 100 µM (inactive) | > 100 µM (inactive) | > 100 µM (inactive) | > 100 µM (inactive) |  | > 100 µM (inactive) | > 100 µM (inactive) | > 100 µM (inactive) | > 100 µM (inactive) | > 100 µM (inactive) | > 100 | > 100 µM (inactive) | > 100 µM (inactive) | > 100 µM (inactive) | > 100 µM (inactive) | > 100 µM (inactive) | > 100 µM (inactive) |
| COc1ccc(C2NCCc3c2[nH]c2ccccc32)cc1 (stereo unspecified) | > 100 µM (inactive) | > 100 µM (inactive) | > 100 µM (inactive) | > 100 µM (inactive) |  | 24.7 µM (inactive) |  | 60.8 µM (inactive) | > 100 µM (inactive) | 21.2 µM (inactive) | > 100 | > 100 µM (inactive) | > 100 µM (inactive) | > 100 µM (inactive) | 28.2 µM (inactive) | 88.9 µM (inactive) | > 100 µM (inactive) |
| NC(=O)NC(=O)C1CCC(=O)N1S(=O)(=O)c1ccc(Cl)cc1 (stereo unspecified) | > 100 µM (inactive) | > 100 µM (inactive) | > 100 µM (inactive) | > 100 µM (inactive) | > 100 µM (inactive) |  | > 100 µM (inactive) | > 100 µM (inactive) | > 100 µM (inactive) | > 100 µM (inactive) | > 100 | > 100 µM (inactive) | > 100 µM (inactive) | > 100 µM (inactive) | > 100 µM (inactive) | > 100 µM (inactive) | > 100 µM (inactive) |
| CCOC(=O)/C(O)=C/c1cc(OC)cc(=O)o1 | > 100 µM (inactive) | > 100 µM (inactive) | > 100 µM (inactive) | > 100 µM (inactive) | > 100 µM (inactive) | > 100 µM (inactive) | > 100 µM (inactive) | > 100 µM (inactive) | > 100 µM (inactive) |  | > 100 | > 100 µM (inactive) | > 100 µM (inactive) | > 100 µM (inactive) |  | > 100 µM (inactive) | > 100 µM (inactive) |
| O=C1N2Cc3c4ccc5c3CN3C(=O)N6Cc7c(ccc(c7CN1C6(c1ccccc1)C23c1ccccc1)OCCOCCOc1cc(Br)c(Br)cc1OCCOCCO4)OCCOCCOc1cc(Br)c(Br)cc1OCCOCCO5 (stereo unspecified) | > 100 µM (inactive) | > 100 µM (inactive) |  | > 100 µM (inactive) | 36.5 µM (inactive) | > 100 µM (inactive) | 91 µM (inactive) | > 100 µM (inactive) | > 100 µM (inactive) | 40.8 µM (inactive) | 25.4 |  | > 100 µM (inactive) | > 100 µM (inactive) | > 100 µM (inactive) | > 100 µM (inactive) | 39.2 µM (inactive) |
| CSc1nc2c(nc(N)n2C2OC(CO)C(O)C(O)C2O)c(=O)n1C (stereo unspecified) | > 100 µM (inactive) | > 100 µM (inactive) | > 100 µM (inactive) | > 100 µM (inactive) | > 100 µM (inactive) | > 100 µM (inactive) |  | > 100 µM (inactive) | > 100 µM (inactive) | > 100 µM (inactive) |  | > 100 µM (inactive) | > 100 µM (inactive) |  | > 100 µM (inactive) | > 100 µM (inactive) | > 100 µM (inactive) |
| COc1cc2cc[n+](C)c(Cc3ccccc3)c2cc1OC | > 100 µM (inactive) | > 100 µM (inactive) | > 100 µM (inactive) | > 100 µM (inactive) | > 100 µM (inactive) |  | > 100 µM (inactive) | > 100 µM (inactive) | > 100 µM (inactive) |  | > 100 |  | > 100 µM (inactive) | > 100 µM (inactive) |  | > 100 µM (inactive) | 96.6 µM (inactive) |
